Ki data for 47 molecules are collected here from US5935954A, “Compounds with improved multi-drug resistance activity” (Vertex Pharmaceuticals Incorporated, priority 1997, dated 1999).

Chain of FKBP12 (P62942 whole entry, species assumed): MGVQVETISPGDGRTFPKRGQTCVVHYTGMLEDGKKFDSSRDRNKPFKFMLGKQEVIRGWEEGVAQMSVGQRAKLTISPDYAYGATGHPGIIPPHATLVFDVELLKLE

For this experiment, the target named is FKBP12 (Homo sapiens, UniProt P62942). As to the kind of experiment: FKBP12 binding assay (inhibition of rotomase activity). In kind it is biochemical. As to conditions: apparent Ki. From the text:
Preferably, the assay measures inhibition of FKBP12 rotomase activity. Such an assay has also been described by M. W. Harding et al., supra and by J. J. Siekierka et al., supra. In this assay the isomerization of an artificial substrate--N-succinyl-Ala-Ala-Pro-Phe-p-nitroanilide--is followed spectrophotometrically. The assay includes the cis form of the substrate, FKBP12, the inhibitor and chymotrypsin. Chymotrypsin is able to cleave p-nitroanilide from the trans form of the substrate, but not the cis form. Release of p-nitroanilide is measured.
The inhibition of FKBP rotomase activity by the preferred FKBP12 binding compounds present in the compositions of this invention was assayed. In this assay various quantities of FKBP12 binding compound (0nM-10 μM) were added to cis-N-succinyl-Ala-Ala-Pro-Phe-p-nitroanilide in the presence of FKBP12 and chymotrypsin. FKBP12 converts the cis form of the substrate to the trans form. This allows chymotrypsin to cleave p-nitroanilide from the substrate. Release of p-nitroanilide was measured spectrophotometrically. This assay allowed me to measure the change in the first order rate constant of the rotomase activity as a function of FKBP12 binding compound concentration and yielded an estimate of apparent Ki.
Consider `COc1cc(C(=O)C(=O)N2CCCC[C@H]2C(=O)OC(CCCc2ccccc2)c2cccc(C(=CCCc3ccccc3)c3cccnc3)c2)cc(OC)c1OC` (some centres unmarked) [Compound 3], for which the Ki came to 300 nM. As for `CCOc1ccc(OCC)c(-c2cccc(C(CCCc3ccccc3)OC(=O)[C@@H]3CCCCN3C(=O)C(=O)c3cc(OC)c(OC)c(OC)c3)c2)c1` (some centres unmarked) [Compound 4], the Ki was greater than 5000 nM. The same measure for `COc1cc(C(=O)C(=O)N2CCCC[C@H]2C(=O)O[C@@H](CCCc2ccccc2)c2cccc(/C(=C\CCc3ccccc3)c3cccnc3)c2)cc(OC)c1OC` [Compound 5]: 4000 nM; for `COc1cc(C(=O)C(=O)N2CCCC[C@H]2C(=O)O[C@H](CCCc2ccccc2)c2cccc(/C(=C\CCc3ccccc3)c3cccnc3)c2)cc(OC)c1OC` [Compound 6]: 24 nM. On to `CCOc1ccc(OCC)c(-c2cccc([C@H](CCCc3ccccc3)OC(=O)[C@@H]3CCCCN3C(=O)C(=O)c3cc(OC)c(OC)c(OC)c3)c2)c1` [Compound 7], for which the Ki was greater than 10000 nM. `CCOc1ccc(OCC)c(-c2cccc([C@@H](CCCc3ccccc3)OC(=O)[C@@H]3CCCCN3C(=O)C(=O)c3cc(OC)c(OC)c(OC)c3)c2)c1` [Compound 8]: the Ki is 1000 nM.

In the case of `COc1cc(C(=O)C(=O)N2CCCC[C@H]2C(=O)O[C@H](CCCc2ccccc2)c2cccc(/C(=C\CCc3ccccc3)c3ccc[n+]([O-])c3)c2)cc(OC)c1OC` [Compound 9], the Ki amounted to 7 nM. As to `CCOc1ccc(OCC)c(-c2cncc([C@@H](CCCc3ccccc3)OC(=O)[C@@H]3CCCCN3C(=O)C(=O)c3cc(OC)c(OC)c(OC)c3)c2)c1` [Compound 10], the Ki was determined as 16 nM.

As to `CCOc1ccc(OCC)c(-c2cncc([C@@H](CCCc3ccccc3)OC(=O)[C@@H]3CCCCN3C(=O)C(=O)c3ccc(OC)c(OC)c3)c2)c1` [Compound 11], the Ki was 7 nM. Consider `CCOc1ccc(OCC)c(-c2cncc([C@H](CCCc3ccccc3)OC(=O)[C@@H]3CCCCN3C(=O)C(=O)c3ccc(OC)c(OC)c3)c2)c1` [Compound 12], for which the Ki turned out to be 30 nM. For the molecule `COc1ccc(C(=O)C(=O)N2CCCC[C@H]2C(=O)O[C@H](CCCc2ccccc2)c2cncc(-c3ccccc3OC)c2)cc1OC` [Compound 13], the Ki was found to be 5 nM. As for `COc1ccc(C(=O)C(=O)N2CCCC[C@H]2C(=O)O[C@@H](CCCc2ccccc2)c2cncc(-c3ccccc3OC)c2)cc1OC` [Compound 14], the Ki was found to be 12 nM. For `COc1ccccc1-c1cncc([C@@H](CCCc2ccccc2)OC(=O)[C@@H]2CCCCN2C(=O)C(=O)c2cc(OC)c(OC)c(OC)c2)c1` [Compound 15] the value was 1 nM. As to `CCC/C=C(/c1cccnc1)c1cccc([C@H](CCCc2ccccc2)OC(=O)[C@@H]2CCCCN2C(=O)C(=O)c2cc(OC)c(OC)c(OC)c2)c1` [Compound 16], the Ki was 3300 nM.

As to `CCC/C=C(/c1cccnc1)c1cccc([C@@H](CCCc2ccccc2)OC(=O)[C@@H]2CCCCN2C(=O)C(=O)c2cc(OC)c(OC)c(OC)c2)c1` [Compound 17], the Ki came to 0.6 nM. For `CCOc1ccccc1-c1cncc([C@@H](CCCc2ccccc2)OC(=O)[C@@H]2CCCCN2C(=O)C(=O)c2cc(OC)c(OC)c(OC)c2)c1` [Compound 18], the Ki worked out at 0.4 nM. For `CCOc1ccccc1-c1cncc([C@H](CCCc2ccccc2)OC(=O)[C@@H]2CCCCN2C(=O)C(=O)c2cc(OC)c(OC)c(OC)c2)c1` [Compound 19], the Ki is 27 nM. Regarding `CCOc1ccccc1-c1cncc([C@@H](CCCc2ccccc2)OC(=O)[C@@H]2CCCCN2C(=O)C(=O)c2ccc(OC)c(OC)c2)c1` [Compound 20], the Ki stood at 5.8 nM. On to `CCOc1ccccc1-c1cncc([C@H](CCCc2ccccc2)OC(=O)[C@@H]2CCCCN2C(=O)C(=O)c2ccc(OC)c(OC)c2)c1` [Compound 21], for which the Ki is 90 nM. Turning to `CCCOc1ccc(OCCC)c(-c2cncc([C@H](CCCc3ccccc3)OC(=O)[C@@H]3CCCCN3C(=O)C(=O)c3cc(OC)c(OC)c(OC)c3)c2)c1` [Compound 23], the Ki stood at 2500 nM. Turning to `COc1cc(C(=O)C(=O)N2CCCC[C@H]2C(=O)O[C@@H](CCCc2ccccc2)c2cncc(-c3c(OC)cccc3OC)c2)cc(OC)c1OC` [Compound 25], the Ki was 30 nM. Consider `CC/C=C(/c1cccnc1)c1cccc([C@@H](CCCc2ccccc2)OC(=O)[C@@H]2CCCCN2C(=O)C(=O)c2cc(OC)c(OC)c(OC)c2)c1` [Compound 29], for which the Ki is 1 nM. Turning to `CCC/C=C(\c1cccnc1)c1cccc([C@H](CCN2CCOCC2)OC(=O)[C@@H]2CCCCN2C(=O)C(=O)c2cc(OC)c(OC)c(OC)c2)c1` [Compound 31], the Ki worked out at 130 nM. Turning to `COc1cc(C(=O)C(=O)N2CCCC[C@H]2C(=O)O[C@@H](/C(C)=C/[C@H]2CC[C@H](O)CC2)c2cncc(-c3c(OC)cccc3OC)c2)cc(OC)c1OC` [Compound 33], the Ki is 12 nM. The same measure for `CCCC/C=C(/c1cccnc1)c1cccc([C@@H](CCN2CCOCC2)OC(=O)[C@@H]2CCCCN2C(=O)C(=O)c2cc(OC)c(OC)c(OC)c2)c1` [Compound 34]: 6 nM; for `CCCC/C=C(/c1cccnc1)c1cccc([C@H](CCN2CCOCC2)OC(=O)[C@@H]2CCCCN2C(=O)C(=O)c2cc(OC)c(OC)c(OC)c2)c1` [Compound 35]: 380 nM; for `CCCC/C=C(/c1cccnc1)c1cccc([C@H](CCCc2ccccc2)OC(=O)[C@@H]2CCCCN2C(=O)C(=O)c2cc(OC)c(OC)c(OC)c2)c1` [Compound 36]: greater than 30 nM. As to `CCCC/C=C(/c1cccnc1)c1cccc([C@@H](CCCc2ccccc2)OC(=O)[C@@H]2CCCCN2C(=O)C(=O)c2cc(OC)c(OC)c(OC)c2)c1` [Compound 37], the Ki is less than 1 nM. For the molecule `CCC/C=C(/c1ccc(C)cc1)c1cncc([C@@H](OC(=O)[C@@H]2CCCCN2C(=O)C(=O)c2ccc(F)cc2)/C(C)=C/[C@H]2CC[C@H](O)CC2)c1` [Compound 38], the Ki turned out to be 70 nM.

For `CCC/C=C(/c1ccc(C)cc1)c1cncc([C@H](OC(=O)[C@@H]2CCCCN2C(=O)C(=O)c2ccc(F)cc2)/C(C)=C/[C@H]2CC[C@H](O)CC2)c1` [Compound 39], the Ki came to 45 nM.

For the molecule `COCc1cccc(COC)c1-c1cncc([C@H](OC(=O)[C@@H]2CCCCN2C(=O)C(=O)c2ccco2)/C(C)=C/[C@H]2CC[C@H](O)CC2)c1` [Compound 41], the Ki came out at 67 nM. For `CCC/C=C(\c1cncc([C@@H](OC(=O)[C@@H]2CCCCN2C(=O)C(=O)c2ccc(F)cc2)/C(C)=C/[C@H]2CC[C@H](O)CC2)c1)C1CCCCC1` [Compound 42], the Ki was 2100 nM.

Regarding `CCOCc1cc2ccccc2n1-c1cccc([C@H](OC(=O)[C@@H]2CCCCN2C(=O)C(=O)c2ccco2)/C(C)=C/[C@H]2CC[C@H](O)CC2)c1` [Compound 44], the Ki was 53 nM. On to `CCC/C=C(\c1cncc([C@@H](OC(=O)[C@@H]2CCCCN2C(=O)C(=O)c2ccco2)/C(C)=C/[C@H]2CC[C@H](O)CC2)c1)C1CCCCC1` [Compound 45], for which the Ki was 230 nM.

Turning to `CCC/C=C(\c1cncc([C@H](OC(=O)[C@@H]2CCCCN2C(=O)C(=O)c2ccco2)/C(C)=C/[C@H]2CC[C@H](O)CC2)c1)C1CCCCC1` [Compound 46], the Ki is 100 nM. As to `COC/C=C(\c1cncc([C@H](OC(=O)[C@@H]2CCCCN2C(=O)C(=O)c2ccco2)/C(C)=C/[C@H]2CC[C@H](O)CC2)c1)C1CCCCC1` [Compound 47], the Ki was 84 nM.

Turning to `COC/C=C(\c1cncc([C@@H](OC(=O)[C@@H]2CCCCN2C(=O)C(=O)c2ccco2)/C(C)=C/[C@H]2CC[C@H](O)CC2)c1)C1CCCCC1` [Compound 48], the Ki is 120 nM. With `CCOCc1cccc(COCC)c1-c1csc(C(CCN2CCOCC2)OC(=O)[C@@H]2CCCCN2C(=O)C(=O)C(C)(C)COC)c1` (some centres unmarked) [Compound 49], the Ki is greater than 10000 nM.

As to `CCOCc1cccc(COCC)c1-c1csc(C(CCN2CCOCC2)OC(=O)[C@@H]2CCCCN2C(=O)C(=O)C(C)(C)COC)c1` (some centres unmarked) [Compound 50], the Ki is greater than 10000 nM. The same measure for `COCc1cccc(COC)c1-c1cncc([C@H](OC(=O)[C@@H]2CCCCN2C(=O)C(=O)C(C)(C)COC)/C(C)=C/[C@H]2CC[C@H](O)CC2)c1` [Compound 51]: greater than 10000 nM. As to `C=CCC/C=C(/c1cccnc1)c1ccc([C@H](OC(=O)[C@@H]2CCCCN2C(=O)C(=O)C(C)(C)C)/C(C)=C/C2CCN(C)CC2)s1` [Compound 53], the Ki was 70 nM. `C=CCC/C=C(/c1cccnc1)c1ccc([C@@H](OC(=O)[C@@H]2CCCCN2C(=O)C(=O)C(C)(C)COC)/C(C)=C/C2CCN(C)CC2)s1` [Compound 55]: the Ki is greater than 10000 nM.

Turning to `C=CCC/C=C(/c1cccnc1)c1ccc([C@H](OC(=O)[C@@H]2CCCCN2C(=O)C(=O)C(C)(C)COC)/C(C)=C/C2CCN(C)CC2)s1` [Compound 56], the Ki is greater than 5000 nM.

On to `CCOCc1cc2ccccc2n1-c1cccc([C@H](OC(=O)[C@@H]2CCCCN2C(=O)C(=O)C2(O)CCOCC2)/C(C)=C/[C@H]2CC[C@H](O)CC2)c1` [Compound 57], for which the Ki stood at 930 nM.

Take `CCOCc1cc2ccccc2n1-c1cccc([C@H](OC(=O)[C@@H]2CCCCN2C(=O)C(=O)C(C)(C)COC)/C(C)=C/[C@H]2CC[C@H](O)CC2)c1` [Compound 58]: the Ki was greater than 9000 nM. As for `COC/C=C(\c1cncc([C@H](OC(=O)[C@@H]2CCCCN2C(=O)C(=O)CC(C)C)/C(C)=C/[C@H]2CC[C@H](O)CC2)c1)C1CCCCC1` [Compound 60], the Ki was 57 nM.

Regarding `CCOCc1cccc(COCC)c1-c1csc([C@@H](CCN2CCOCC2)OC(=O)[C@@H]2CCCCN2C(=O)C(=O)C(C)(C)C)c1` [Compound 62], the Ki worked out at 100 nM.
